In patent US20040198795A1, “Substituted imidazoliums and methods of use therefor” (priority 1996, published 2004):

What was measured:
[1] = tested on: AGE receptor on macrophages (RAW 264.7 cells); assay: Radioligand binding assay for upregulation of the AGE receptor on macrophages; type: cell-based; settings: iodinated AGE-BSA
Experimental: To study the effects of test compounds on the upregulation of the AGE receptor on macrophages, the following radioligand binding assay was utilized.
2. One day prior to assay, 1.0 ml of cells are plated per well onto 24 well culture plates at a concentration of 0.75×10^6 cells per ml.
4. […] One ml of the ligand mixture is added to the appropriate wells and the plates are place at 4° C. on a rocking platform for four hours.
6. To each well is added 1.0 ml of 1.0 N sodium hydroxide for fifteen to thirty minutes. The disrupted cells are removed using a cotton tipped swab. After placing the swab in the appropriate tube for gamma counting, the medium remaining in each well is collected and added to the tubes containing the swabs. Each well is washed twice with 0.5 ml of 1.0 N sodium hydroxide which is then added to the appropriate tubes.
7. The samples are counted in an LKB gamma counter and the final numbers are used to determine the percent specific binding as well as the Ka, the Kd and the number of receptors per cell.

[2] = target: T1, AGE-BSA previously crosslinked to the collagen (Bos taurus, UniProt P02769); assay: Sandwich enzyme immunoassay for breaking of AGE-BSA cross-linked to collagen; type: biochemical; settings: 10 mM, 16 hours, 37° C.; for % breaking, Pr AbαAGE: primary antibody anti-AGE-RNase; for % breaking, PrAbαBSA: primary antibody anti-BSA
T1 construct: Bovine Serum Albumin (Type V), (BSA) Calbiochem; purchased Calbiochem (BSA, Type V); Collaborative Biomedical Products (Biocoat collagen plates)
T1 sequence (P02769 25-607): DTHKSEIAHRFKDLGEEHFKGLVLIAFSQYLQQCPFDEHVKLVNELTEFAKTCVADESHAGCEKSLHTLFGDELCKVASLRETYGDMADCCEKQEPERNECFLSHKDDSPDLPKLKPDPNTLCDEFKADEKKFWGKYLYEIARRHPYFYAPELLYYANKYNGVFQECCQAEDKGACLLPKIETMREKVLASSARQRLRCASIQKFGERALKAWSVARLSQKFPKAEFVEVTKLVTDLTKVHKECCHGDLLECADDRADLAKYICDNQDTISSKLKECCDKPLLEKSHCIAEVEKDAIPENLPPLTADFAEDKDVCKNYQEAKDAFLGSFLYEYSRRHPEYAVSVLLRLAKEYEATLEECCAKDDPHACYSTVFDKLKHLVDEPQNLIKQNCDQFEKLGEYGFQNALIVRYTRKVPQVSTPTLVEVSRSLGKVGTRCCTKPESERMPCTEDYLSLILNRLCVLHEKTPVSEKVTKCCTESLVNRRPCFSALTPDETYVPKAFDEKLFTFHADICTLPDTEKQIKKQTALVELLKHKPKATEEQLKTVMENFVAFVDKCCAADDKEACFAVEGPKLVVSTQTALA
Experimental: In order to ascertain the ability of the compounds of the instant invention to “break” or reverse already formed advanced glycosylation endproducts, a novel sandwich enzyme immunoassay was developed which detects breaking of AGE (Advanced glycosylation endproduct) moieties from AGE-crosslinked protein. […] Following an incubation period of 16 hours (37° C.) cross-link-breaking is detected using an antibody raised against AGE-ribonuclease or with an antibody against BSA. […] Details of the assay are as follows:
1. AGE-BSA stock solutions were prepared as follows. Sodium phosphate buffer (0.4 M) was prepared by dissolving 6 grams of monobasic sodium phosphate in 100 ml of distilled water, 7 grams of dibasic sodium phosphate (0.4 M) in 100 ml of distilled water and adjusting the pH of the dibasic solution to 7.4 with the monobasic solution. Sodium azide (0.02 grams) was added per 100 ml volume to inhibit bacterial growth. The BSA solution was prepared as follows: 400 mg of Type V BSA (bovine serum albumin) was added for each ml of sodium phosphate buffer (above). A 400 mM glucose solution was prepared by dissolving 7.2 grams of dextrose in 100 ml of sodium phosphate buffer (above). The BSA and glucose solutions were mixed 1:1 and incubated at 37° C. for 12 weeks. The pH of the incubation mixture was monitored weekly and adjusted to pH 7.4 if necessary. After 12 weeks, the AGE-BSA solution was dialyzed against PBS for 48 hours with four buffer changes, each at a 1:500 ratio of solution to dialysis buffer.
2. Working solutions for crosslinking and breaking studies were prepared as follows. Test compounds were dissolved in PBS and the pH was adjusted to pH 7.4 if necessary. […] The concentration of AGE-BSA necessary to achieve the optimum sensitivity was determined by initial titration of each lot of AGE-BSA.
1. Biocoat plates were blocked with 300 μl of “Superbloc”. Plates were blocked for one hour at room temperature and were washed with PBS-Tween three times with the Dynatech platewasher before addition of test reagents.
2. Each experiment was set up in the following manner. The first three wells of the Biocoat plate were used for the reagent blank. Fifty microliters of solutions AGE-BSA were added to test wells in triplicate and only PBS in blank wells.

[3] = Nordbo 1979; cited from earlier work
[4] = tested on: fixed protein (gelatin, i.e., collagen) surface; assay: Surface browning experiment on gelatin/paper disks with glucose-6-phosphate; settings: Peridex at final 0.04% chlorhexidine, 100 Mm glucose-6-phosphate, one week at 50° C., pH 7.4
Experimental: To further study the ability of inhibitors of nonenzymatic browning to prevent the discoloration of protein on a surface, such as that which occurs on the tooth surface, the following surface browning experiment is performed. As a substitute for a pellicle-covered tooth surface, unexposed and developed photographic paper is used to provide a fixed protein (gelatin, i.e., collagen) surface on a paper backing. Five millimeter circles are punched and immersed for one week at 50° C. in a solution of 100 Mm glucose-6-phosphate in a 0.5 M phosphate buffer, pH 7.4, containing 3 Mm sodium azide. Glucose-6-phosphate is a sugar capable of participating in nonenzymatic browning at a more rapid rate than glucose. In addition to the glucose-6-phosphate, chlorhexidine and/or a compound of Formula I are included. After incubation, the gelatin/paper disks are rinsed with water, observed for brown color, and photographed.

[5] = target: cross-linking of glycated bovine serum albumin (AGE-BSA) to the rat tail tendon collagen (Bos taurus, UniProt P02769); assay: Inhibition of cross-linking of AGE-BSA to rat tail tendon collagen coated plate (ELISA); settings: for % Inh.: at 10 mM, PBS pH 7.4, 37° C., 4 hours
Sequence of cross-linking of glycated bovine serum albumin (AGE-BSA) to the rat tail tendon collagen (P02769 25-607): as above
Experimental: The following method was used to evaluate the ability of the compounds of the present invention to inhibit the cross-linking of glycated bovine serum albumin (AGE-BSA) to the rat tail tendon collagen coated 96-well plate.
The glycated BSA was then extensively dialyzed against phosphate buffer solution (PBS) for 48 hours with additional 5 times buffer exchanges. […] The blocking solution was removed from the wells by washing the plate twice with PAS-Tween 20 solution (0.05% Tween 20) using a NUNC-multiprobe or Dynatech ELISA-plate washer. […] The unbrowned BSA in PBS buffer with or without testing compound were added to the separate wells as the blanks. The uncross-linked AGE-BSA was then removed by washing the wells three times with PBS-Tween buffer. The cross-linked AGE-BSA to the tail tendon coated plate was then quantitated by the polyclonal antibody raised against AGE-RNase. After a one-hour incubation period, AGE antibody was removed by washing 4 times with PBS-Tween.
The bound AGE antibody was then detected with the addition of horseradish peroxidase-conjugated secondary antibody, e.g., goat anti-rabbit immunoglobulin and incubation for 30 minutes. […] The reaction was allowed for an additional 15 minutes and the absorbance was read at 410 nm in a Dynatech plate reader.
The % inhibition of each test compound was calculated as follows.

[6] = tested on: aortic wall protein cross-linking; settings: diabetic rats; cited from earlier work
red blood cells = settings: in vivo; cited from earlier work
[7] = tested on: immunoglobulin trapping in the kidney; settings: Brownlee et al. 1986; cited from earlier work
[8] = tested on: glomerular basement membrane thickness; settings: streptozotocin-diabetic rat model; cited from earlier work

Compound: Cn1cc[n+](CC(N)=O)c1.[Br-]
- melting point: 183 to 185 °C

Compound: 1-methyl-3-[2-(3′-methoxyphenyl)-2-oxoethyl]-imidazolium bromide
- Specific Binding Expressed as % Control, Day 1 [1]: 125%
- Specific Binding Expressed as % Control, Day 2 [1]: 132%
- Specific Binding Expressed as % Control, Day 3 [1]: 143%
- Specific Binding Expressed as % Control, Day 4 [1]: 360%
- % breaking, Pr AbαAGE [2]: 20%
- % breaking, PrAbαBSA [2]: 24%

Compound: [H]/N=C(\N/C(=N/[H])NCCCCCCNC(=N)NC(=N)Nc1ccc(Cl)cc1)Nc1ccc(Cl)cc1 [chlorhexidine]
- Effect on browning reactions in vitro [3]: catalyze browning reactions
- Brown color of gelatin/paper disks [4]: significant browning

Compound: benzalkonium chloride
- Effect on browning reactions in vitro [3]: catalyze browning reactions

Compound: COc1ccc(C(=O)C[n+]2ccn(C)c2)cc1.[Br-] [1-methyl-3-[2-(4′-methoxyphenyl)-2-oxoethyl]-imidazolium bromide]
- Specific Binding Expressed as % Control, Day 1 [1]: 185%
- Specific Binding Expressed as % Control, Day 2 [1]: 132%
- Specific Binding Expressed as % Control, Day 3 [1]: 145%
- Specific Binding Expressed as % Control, Day 4 [1]: 423%
- % breaking, Pr AbαAGE [2]: 38%
- % breaking, PrAbαBSA [2]: 27%

Compound: CCN(CC)c1ccc(C(=O)Cn2cc[n+](C)c2)cc1 [1-Methyl-3-[2-(4′-diethylaminophenyl)-2-oxo-ethyl]-imidazolium bromide]
- IC50 ([5]; rat, 4 h, pH 7.4): 1.75 mM
- % breaking, Pr AbαAGE [2]: 32%
- % breaking, PrAbαBSA [2]: 28%

Compound: Cn1cc[n+](CC(=O)c2ccccc2)c1.[Br-]
- melting point: 108 to 110 °C

Compound: Cn1cc[n+](CC(=O)c2ccc(Br)cc2)c1.[Br-] [1-methyl-3-[2-(4′-bromophenyl)-2-oxoethyl]-imidazolium bromide]
- % Inh. [5]: 23%

Compound: CCOC(=O)CCCCCn1cc[n+](CC(=O)c2cccc(OC)c2)c1.[Br-] [1-(ethoxycarbonylpentyl)-3-[2-(3′-methoxyphenyl)-2-oxoethyl]-imidazolium bromide]
- % Inh. [5]: 40%

Compound: N=C(N)NN [aminoguanidine]
- Aortic wall protein cross-linking [6]: diminishes aortic wall protein cross-linking
- Diabetes-induced changes in the deformability of red blood cells (red blood cells): prevent it
- Immunoglobulin trapping in the kidney [7]: reduction of immunoglobulin trapping in the kidney
- Increased glomerular basement membrane thickness [8]: prevented
